Patent publication US10526580B2, “Differentiated cell population of endothelial cells derived from human pluripotent stem cells, composition, system, kit and uses thereof” (BIOCANT-ASSOCIAÇÃO DE TRANSFERÊNCIA DE TECNOLOGIA, priority 2012, dated 2020)
Counter-ions that a name gives are not always drawn. Like-named read-outs stand apart in the source and are kept apart here.

Key:
Type in all cases: cell-based, human
[1] = tested on: hESC-derived ECs versus HUAECs; assay: High-throughput screening of LOPAC library, PrestoBlue cell viability, hESC-derived ECs versus HUAECs; settings: LOPAC screen, 4.5 μM, 4 days, PrestoBlue assay
Description: (§1) High-throughput screening (HTS). HUAECS (Lonza) and hESC-derived ECs were cultured in EGM-2 medium while human anterior cruciate ligament cells (ACL cells) were cultured in Dulbecco's modified Eagle's medium (DMEM; PAA) supplemented with 10% FBS, 0.2 mM ascorbic acid 2-phosphate magnesium salt (Sigma Aldrich), […] streptomycin and 100 U/mL penicillin (Life Technologies). ACL cells were isolated from patients that have signed an informed consent form, in compliance with the Dutch legislation. The ethical committee of Medisch Spectrum Twente Hospital approved the collection.
(§2) The LOPAC library (Sigma-Aldrich) was used to screen embryonic endothelial-specific cytotoxic compounds. The compounds were solubilized in DMSO. The final compound concentration used in the screen was 4.5 μM in a final volume of 200 μL per well (96-well plate). HUAECs, hESC-derived EC and ACL cells were seeded at 16,000 cells/well (HUAECs and hESC-derived ECs) and 5,000 cells/well (ACL cells) and allowed to reach near confluence (approximately two days). After two days, medium was exchanged and test compounds and controls were added to the 96-well plates (all wells contained 0.25% (v/v) DMSO). After 4 days of incubation, cell viability was assessed using a PrestoBlue (Invitrogen) assay. This assay is based on a resazurin-based solution that indicates the reducing power of living cells and therefore measures indirectly their number. For each measurement, cell medium was removed and the PrestoBlue solution (10%) was added for 3 h at 37° C. upon which the absorbance was measured at 560-590 nm.
(§3) Disruption of vascular development has been directly correlated with prenatal loss, malformations and neurodevelopmental problems^41-44. […] The library was screened at a single dosage of 4.5 μM in a volume of 200 μL per well of EGM-2 medium, containing 0.25% DMSO (v/v). […] Six compounds (danazol, chlorpromazine hydrochloride, ellipticine, 3′,4′-dichlorobenzamil, fluphenazine dihydrochloride and 7-cyclopentyl-5-(4-phenoxy)phenyl-7H-pyrrolo[2,3-d]pyrimidin-4-ylamine) affected cell viability in both cells by a difference of 20% (FIG. 4B). The six compounds belong to different classes: cell cycle, ion pumps, dopamine pathway, phosphorylation and hormone signaling. The compounds selected from the primary screen were then tested against hESC-derived ECs and HUAECs at eight different concentrations to obtain a dose-response curve (FIG. 4C and FIG. 14).

[2] = tested on: hESC-derived ECs versus ACL cells; assay: High-throughput screening of LOPAC library, PrestoBlue cell viability, hESC-derived ECs versus ACL cells
Description: as §1, §2, §3

CD31+ cells = assay: Shh and Notch signaling modulators, arterial and venous marker expression in CD31+ cells; settings: for expression of arterial marker EphB2: cyclopamine 5 μM and Notch inhibitor L685458 1 μM together; for expression of arterial EC markers EphB2 (protein level), HEY-2, JAG-1 and EFNB1 (gene level) / expression of venous EC markers Lefty-1 and Lefty-2: purmorphamine 1 μM and DLL4 100 ng/mL together, versus cells without activators
Description: hESC culture and differentiation. Undifferentiated hESCs (passages 33-36; H9, WiCell, Wisconsin) or hiPSCs K2 (passages 32-35; cord blood derived iPSCs kindly donated by Ulrich Martin) were grown on an inactivated mouse embryonic fibroblast (MEF) feeder layer, as previously described 1, 2. To induce the formation of EBs, the undifferentiated hESCs were treated with 2 mg/mL type IV collagenase (Invitrogen) for 2 h and then transferred (2:1) to low attachment plates (Corning) containing 10 mL of differentiation medium [80% KO-DMEM, 20% fetal bovine serum (FBS, Invitrogen), 0.5% L-glutamine, 0.2% β-mercaptoethanol, 1% nonessential amino acids]. The differentiation medium was supplemented with VEGF165 (50 ng/mL, Prepotech), Tβ4 (100 ng/mL, Caslo) and SB431542 (10 μM, Tocris) according to the following timeline: [(VEGF165)days0-18+(Tβ4)days4-18+(SB431542)days7-18]. After 4 days in suspension, EBs were plated onto 1% gelatin-coated dishes and grown for 14 additional days. Medium was changed every 2-3 days. To evaluate the contribution of Shh and Notch signaling pathways, the differentiation medium was supplemented with one or two of the following agents: 1 μM purmorphamine (Shh activator; Cayman Chemical), 5 μM cyclopamine (Shh inhibitor; Sigma), 100 ng/ml DLL-4 (Notch activator; Prepotech), or 1 μM Y^−-secretase inhibitor L685458 (Notch inhibitor; Tocris Biosciences) 47.
Arterial and venous gene expression was analyzed in CD31^+ cells at the time of their isolation. […] Because arterial/vein specification during mouse embryogenesis is in large part mediated by Notch and Sonic Hedgehog (Shh), the expression of Notch (Notch1, Notch2, Notch3, Notch4) and Shh (patched 1) receptors as well as Notch (DLL1, DLL3, DLL4, JAG-1, JAG-2) and Shh transcription factors (GLI1 and SMO) in CD31^+ cells was assessed (FIG. 1E). […] Was also studied the involvement of Notch and Shh signaling pathways in the gene expression of arterial and venous markers in cells after CD31^+ cell isolation. The independent activation of each signaling pathway has little impact in the expression of arterial marker EphB2 (FIG. 1F).

[3] = LOPAC screen, 4.5 μM, 4 days of incubation, PrestoBlue assay

N/C(=N\C(=O)c1nc(Cl)c(N)nc1N)NCc1ccc(Cl)c(Cl)c1 [3′,4′-Dichlorobenzamil]
difference in cell viability between hESC-derived ECs and HUAECs [1]: 20% | Differences (%) in cell viability (hESC-Derived ECs versus ACL cells) [2, 3]: 54.2%

CN(C)CCCN1c2ccccc2Sc2ccc(Cl)cc21 [Chlorpromazine hydrochloride]
difference in cell viability between hESC-derived ECs and HUAECs [1]: 20% | Differences (%) in cell viability (hESC-Derived ECs versus ACL cells) [2, 3]: 57.2%

C#C[C@]1(O)CC[C@H]2[C@@H]3CCC4=Cc5oncc5C[C@]4(C)[C@H]3CC[C@@]21C [Danazol]
difference in cell viability between hESC-derived ECs and HUAECs [1]: 20% | Differences (%) in cell viability (hESC-Derived ECs versus ACL cells) [2, 3]: 52.7%

Cc1c2ccncc2c(C)c2c1[nH]c1ccccc12 [Ellipticine]
difference in cell viability between hESC-derived ECs and HUAECs [1]: 20% | Differences (%) in cell viability (hESC-Derived ECs versus ACL cells) [2, 3]: 58.5%

OCCN1CCN(CCCN2c3ccccc3Sc3ccc(C(F)(F)F)cc32)CC1 [Fluphenazine dihydrochloride]
difference in cell viability between hESC-derived ECs and HUAECs [1]: 20% | Differences (%) in cell viability (hESC-Derived ECs versus ACL cells) [2, 3]: 51.4%

CC(C)C[C@H](NC(=O)[C@H](Cc1ccccc1)C[C@@H](O)[C@H](Cc1ccccc1)NC(=O)OC(C)(C)C)C(=O)N[C@@H](Cc1ccccc1)C(N)=O [L685458]
expression of arterial marker EphB2 (CD31+ cells): significantly decreased

CN1CCN(CCCN2c3ccccc3Sc3ccc(C(F)(F)F)cc32)CC1 [Trifluoperazine dihydrochloride]
Differences (%) in cell viability (hESC-Derived ECs versus ACL cells) [2, 3]: 54.0%

CN(C)CCCN1c2ccccc2Sc2ccc(C(F)(F)F)cc21 [Triflupromazine hydrochloride]
Differences (%) in cell viability (hESC-Derived ECs versus ACL cells) [2, 3]: 53.0%

CC(C)(C)c1cc(C=C(C#N)C#N)cc(C(C)(C)C)c1O [Tyrphostin A9]
Differences (%) in cell viability (hESC-Derived ECs versus ACL cells) [2, 3]: 69.5%

N#C/C(=C\c1ccc(O)c(O)c1)C(=O)NCc1ccccc1 [Tyrphostin AG 490]
Differences (%) in cell viability (hESC-Derived ECs versus ACL cells) [2, 3]: 56.3%

C[C@@H](NC(=O)/C(C#N)=C/c1ccc(O)c(O)c1)c1ccccc1 [Tyrphostin AG 527]
Differences (%) in cell viability (hESC-Derived ECs versus ACL cells) [2, 3]: 53.4%

N#C/C(=C\c1ccc(O)c(O)c1)C(=O)NCCCNC(=O)/C(C#N)=C/c1ccc(O)c(O)c1 [Tyrphostin AG 537]
Differences (%) in cell viability (hESC-Derived ECs versus ACL cells) [2, 3]: 52.3%

CC(C)(C)c1cc(/C=C(\C#N)C(N)=S)cc(C(C)(C)C)c1O [Tyrphostin AG 879]
Differences (%) in cell viability (hESC-Derived ECs versus ACL cells) [2, 3]: 54.4%

N#CC(=C(/N)Sc1ccccc1N)/C(C#N)=C(\N)Sc1ccccc1N [U0126]
Differences (%) in cell viability (hESC-Derived ECs versus ACL cells) [2]: 68.9%

C[C@]12C=CC(=O)C=C1CC[C@@H]1C2=CC[C@]2(C)[C@@H](C(=O)CN3CCN(c4cc(N5CCCC5)nc(N5CCCC5)n4)CC3)CC[C@@H]12.O=C(O)/C=C\C(=O)O [U-74389G maleate]
Differences (%) in cell viability (hESC-Derived ECs versus ACL cells) [2, 3]: 51.6%

Cc1c(C)c2c(c(C)c1O)CCC(C)(CN1CCN(c3cc(N4CCCC4)nc(N4CCCC4)n3)CC1)O2.Cl.Cl (centres unmarked) [U-83836 dihydrochloride]
Differences (%) in cell viability (hESC-Derived ECs versus ACL cells) [2, 3]: 51.3%

CC[C@]1(O)C[C@H]2CN(CCc3c([nH]c4ccccc34)[C@@](C(=O)OC)(c3cc4c(cc3OC)N(C=O)[C@H]3[C@@](O)(C(=O)OC)[C@H](OC(C)=O)[C@]5(CC)C=CCN6CC[C@]43[C@@H]65)C2)C1 [Vincristine sulfate]
Differences (%) in cell viability (hESC-Derived ECs versus ACL cells) [2, 3]: 89.2%

COC[C@H]1OC(=O)c2coc3c2[C@@]1(C)C1=C(C3=O)[C@@H]2CCC(=O)[C@@]2(C)C[C@H]1OC(C)=O [Wortmannin from Penicillium funiculosum, Wortmannin]
Differences (%) in cell viability (hESC-Derived ECs versus ACL cells) [2, 3]: 57.9%

CC(Oc1ccc(Oc2cnc3ccc(Cl)cc3n2)cc1)C(=O)O (centres unmarked) [XK469]
Differences (%) in cell viability (hESC-Derived ECs versus ACL cells) [2, 3]: 75.9%

COc1cc(-c2ccc(=O)[nH]n2)ccc1OC(F)F [Zardaverine]
Differences (%) in cell viability (hESC-Derived ECs versus ACL cells) [2, 3]: 84.0%

Cl.Cl.OCCN1CCN(CC/C=C2/c3ccccc3Sc3ccc(C(F)(F)F)cc32)CC1 [cis-(Z)-Flupenthixol dihydrochloride]
Differences (%) in cell viability (hESC-Derived ECs versus ACL cells) [2, 3]: 69.6%

CC1=C2C[C@H]3[C@@H](CC=C4C[C@@H](O)CC[C@@]43C)[C@@H]2CC[C@]12O[C@@H]1C[C@H](C)CN[C@H]1[C@H]2C [cyclopamine]
expression of arterial marker EphB2 (CD31+ cells): significantly decreased

c1ccc2c(Oc3nc(Nc4ccc(N5CCOCC5)cc4)c4ncn(C5CCCCC5)c4n3)cccc2c1 [purmorphamine]
expression of arterial EC markers EphB2 (protein level), HEY-2, JAG-1 and EFNB1 (gene level) (CD31+ cells): significantly increased | expression of venous EC markers Lefty-1 and Lefty-2 (CD31+ cells): decreased

(±)-Butaclamol hydrochloride
Differences (%) in cell viability (hESC-Derived ECs versus ACL cells) [2, 3]: 53.6%

DLL4: Notch activator
expression of arterial EC markers EphB2 (protein level), HEY-2, JAG-1 and EFNB1 (gene level) (CD31+ cells): significantly increased | expression of venous EC markers Lefty-1 and Lefty-2 (CD31+ cells): decreased

Ivermectin
Differences (%) in cell viability (hESC-Derived ECs versus ACL cells) [2, 3]: 78.7%

R-(−)-Fluoxetine hydrochloride
Differences (%) in cell viability (hESC-Derived ECs versus ACL cells) [2, 3]: 54.5%

Vinblastine sulfate salt
Differences (%) in cell viability (hESC-Derived ECs versus ACL cells) [2, 3]: 92.8%
